According to publication PMC11476552, “Synthesis and Preliminary Studies for In Vitro Biological Activity of Two New Water-Soluble Bis(thio)carbohydrazones and Their Copper(II) and Zinc(II) Complexes” (International Journal of Molecular Sciences, 2024):

Key:
[1] = test system: Hs27 cells; assay: Antiproliferative activity, trypan blue cell count, Hs27; type: cell-based; conditions: Hs27, up to 100 µg/mL, 24-72 h
Protocol: We have started to investigate the antiproliferative profile of the ligands and of the complexes C1–C4 using a normal fibroblast cell line (Hs27) and a leukaemia cell line (U937), an in vitro cell model system systematically used to validate the toxicological profile of new potential anticancer agents. For the cytotoxicity assay, we treated Hs27 and U937 cells with five different concentrations of compound, ranging from 12.5 to 100 µg/mL, for 24, 48, and 72 h.
U937 cells (ATCC, CRL-1593.2) were obtained from the American Tissue Culture Collection (Rockville, MD, USA) and were cultured in Roswell Park Memorial Institute Medium (RPMI-1640) (Euroclone, Italy); Hs27 cells (ATCC, CRL1634) were grown in DMEM. Both media were supplemented with 10% (v/v) foetal bovine serum (Euroclone, Italy), 1% L-glutamine (2 mM) (Euroclone, Italy), and 1% penicillin (100 U/mL)/streptomycin (100 µg/mL) (Euroclone, Italy), added with 10% (v/v) foetal bovine serum (Euroclone, Italy), 1% L-glutamine (2 mM) (Euroclone, Italy), and 1% penicillin (100 U/mL)/streptomycin (100 µg/mL) (Euroclone, Italy). Flasks were maintained at 37 °C and 5% CO2 in a humidified atmosphere. […]
The antiproliferative activity of the ligands and the complexes C1–C4 was evaluated in vitro on U937 and Hs27 cell lines. […] Values are reported as the mean of the GI50 calculated on two independent experiments.

[2] = Solubility of the ligands and complexes in water; type: physicochemical; conditions: for solubility: r.t.
Excerpt: Elemental (see experimental section) and TGA (Figure S5) analyses confirmed the formulae Na2H4L^1∙5.5H2O (bis-TCH) and Na2H4L^2∙5H2O (bis-CH).

[3] = Zn(II) complex formation equilibria, spectrophotometric titration at pH 7.4; type: physicochemical; conditions: for Log β([Zn2L]) / Log β([ZnL]): conditional formation constant, aqueous 25 mM HEPES buffer, pH 7.4, 25 °C
Excerpt: The best fit was obtained using a speciation model that consists of the sequential formation of a monometallic [ZnL] and a bimetallic [Zn2L] species. In fact, two families of spectra were observed, according to the presence in solution of two complex species and the free ligand. The first family of spectra (Zn/L = 0–1) (Figure S25) is characterized by a decrease in intensity for the bands of the free ligand at 239, 315, and 450 nm, and the appearance of bands at 251 and 394 nm. There are four isosbestic points at 245, 280, 371, and 429 nm. The second family of spectra (Zn/L = 1–2) (Figure S26) presents redshift and increase in absorbance of the band at 251 nm, the disappearance of the band at 349 nm, and redshift with decrease of absorbance of the band at 394 nm. […] The log β values for the formation of Zn(II) complexes with Na2H4L^1 · 5.5 H2O can be estimated (Table 4), and a representative distribution diagram is reported in Figure S27.
The spectra are characterized by four bands at ca. 238, 255, 305, and 371 nm, with those at 255 and 371 nm increasing in intensity with the addition of metal ions. The presence of these separated absorption bands led to the observation of three apparent isosbestic points at 243, 276, and 345 nm. Analogously to the Zn(II)/bis-thiocarbohydrazone system, the best fit was obtained using a speciation model that consists of the sequential formation of a monometallic [ZnL] and a bimetallic [Zn2L] species. In Figure 8, the absorbance values at 307 nm as a function of the equivalents of added Zn(II) are reported. The absorbance trend presents two almost linear regions between 0 and 1 eq. of Zn(II) and between 1 and 2 eq., respectively. This is, in fact, consistent with the sequential formation of two species with Zn:L ratios of 1:1 and 2:1, respectively. […] This behaviour is, perhaps, to be expected, taking into account the softer nature of the thiocarbohydrazonic group.
Samples used for the study of protonation equilibria of the ligands were prepared as follows. […] For each solution, the absorption spectrum was collected in the 220–600 nm range at 298.2 K. The spectral data collection was carried out immediately after the preparation of the samples and repeated after 3 and 10 min for all the samples at different pH values to check the stability of the ligand. […] The complex formation equilibria at pH 2.5 or 7.4 of bis-TCH and bis-CH with Cu(II) and Zn(II) ions were studied by direct spectrophotometric titrations of solutions of the ligands with the metal ions, and the samples were prepared as follows. Appropriate aliquots of the stock solutions of the ligands were diluted in a quartz cuvette of 1 cm path length using HEPES buffer (pH 7.4) or by adding HCl aqueous solution (pH 2.5) to obtain ca. 17 µM ligand solutions in a total volume of 2.6 mL. The obtained ligand solutions were titrated with Cu(II) or Zn(II) titrant solutions (ca. 442 µM) up to a metal/ligand ratio of 3 for the studies at pH 7.4 and up to a Cu(II):ligand ratio of 5 (for Na2H4L^1 · 5.5 H2O) and 7 (for Na2H4L^2 · 5 H2O) for the studies at pH 2.5. […]
The logarithms of the apparent stability constants were calculated from the spectral dataset using HypSpec2014 software. […] All equilibria were studied at fixed pH, and therefore the determined log β values are logarithms of conditional formation constants. […] Speciation diagrams were calculated using the Hyss2009 software. […]

Row | SMILES | cytotoxic effect (in words) [1] | solubility in water (in words) [2] | solubility [2] | Log β([Zn2L]) [3] | Log β([ZnL]) [3] | higher stability of Zn(II) complexes versus Na2H4L^2 · 5 H2O (difference in log β, both species) ([3]; pH 7.4, [ZnL] and [Zn2L])
1 | COc1cc(S(=O)(=O)[O-])cc(/C=N/NC(=O)N/N=C/c2cc(S(=O)(=O)[O-])cc(OC)c2O)c1O.[Na+].[Na+] [bis-CH, Bis-(sodium 3-methoxy-5-sulfonate-salicylaldehyde)-carbohydrazone] | did not produce a reduction in cell viability | very soluble in water | ~23 mg/mL | 13.61(4) | 7.08(3) | 
2 | COc1cc(S(=O)(=O)[O-])cc(/C=N/NC(=S)N/N=C/c2cc(S(=O)(=O)[O-])cc(OC)c2O)c1O.[Na+].[Na+] [bis-TCH, Bis-(sodium 3-methoxy-5-sulfonate-salicylaldehyde)-thiocarbohydrazone] |  | very soluble in water | ~10 mg/mL | 15.29(10) | 8.40(6) | ca. 1.5 log units
